In test [1] the test system is MCF7. Briefly: Antiproliferative activity against human MCF7 cells assessed as inhibition of cell growth measured after 48 hrs by MTT assay. It is filed as functional, cell-based. The note with it: MCF7, 48 h. For orientation: Tetrazolium dyes change colour on reduction, which living cells bring about.
The next test concerns MDA-MB-231. The experiment in a line: Antiproliferative activity against human MDA-MB-231 cells assessed as inhibition of cell growth measured after 48 hrs by MTT assay. Particulars: MDA-MB-231, 48 h. It is filed as functional, cell-based.
The test system of the next test is MCF-10A. Briefly: Cytotoxicity against human MCF-10A cells assessed as reduction in cell viability measured after 48 hrs by MTT assay. It is filed as cell-based.
Test [2] deals with MCF7. The experiment in a line: Inhibition of cell proliferation in human MCF7 cells assessed as increase in intracellular NO production at 25 uM measured after 2.5 hrs by nitric oxide assay. It is filed as functional, cell-based.

The structures appear in SMILES notation. Active and inactive are the calls of the source. The calls are words filed in the database; no cut-off is given here.

The term IC50 denotes the concentration needed to halve the response being measured. `COc1ccc(CNC(=O)c2cc3cc(OC)c(OCCCOc4no[n+]([O-])c4S(=O)(=O)c4ccccc4)cc3oc2=O)cc1`: the values for the IC50 in the test with MCF7 [1], in the test with MDA-MB-231 and in the test with MCF-10A were 560 nM, 780 nM and 5.95 µM, respectively. In the test with MCF7 [2], the outcome was Active.

`COc1cc2cc(N)c(=O)oc2cc1OCCCOc1no[n+]([O-])c1S(=O)(=O)c1ccccc1`: the figures for the IC50 with MCF7 [1], with MDA-MB-231 and in the test with MCF-10A were 2020 nM, 1390 nM and 6.45 µM, respectively.

For the molecule `COc1cc2cc(C(=O)NCCc3ccccc3)c(=O)oc2cc1OCCCOc1no[n+]([O-])c1S(=O)(=O)c1ccccc1`, the IC50 in the test with MCF7 [1] was 640 nM; in the test on MDA-MB-231 it was 980 nM; with MCF-10A, 6.33 µM. Besides, the result with MCF7 [2] was Active.

Consider `COc1cc2cc(C(=O)NCCc3ccc(F)cc3)c(=O)oc2cc1OCCCOc1no[n+]([O-])c1S(=O)(=O)c1ccccc1`, for which the figures for the IC50 with MCF7 [1], in the test on MDA-MB-231 and with MCF-10A were 440 nM, 1110 nM and 7.95 µM, respectively. In the test with MCF7 [2], the outcome was Active.

For the molecule `COc1cc2cc(C(=O)Nc3ccccc3)c(=O)oc2cc1OCCCOc1no[n+]([O-])c1S(=O)(=O)c1ccccc1`, the results for the IC50 in the test with MCF7 [1], in the test with MDA-MB-231 and with MCF-10A were 740 nM, 1190 nM and 9.67 µM, respectively. Moreover, the outcome with MCF7 [2] was Active.

Take `COc1cc2cc(C(=O)NCCCc3ccccc3)c(=O)oc2cc1OCCCOc1no[n+]([O-])c1S(=O)(=O)c1ccccc1`: the IC50 was found to be 870 nM with MCF7 [1], 760 nM in the test on MDA-MB-231 and 5.33 µM in the test with MCF-10A. For the same molecule, in the test on MCF7 [2], the result was Active.

Take `COc1ccc(CCNC(=O)c2cc3cc(OC)c(OCCCOc4no[n+]([O-])c4S(=O)(=O)c4ccccc4)cc3oc2=O)cc1`: the IC50 in the test on MCF7 [1] turned out to be 750 nM; in the test with MDA-MB-231 it was 1540 nM; in the test on MCF-10A, 5.37 µM. In addition, the outcome with MCF7 [2] was Active.

`COc1cc2cc(C(=O)NCc3ccccc3)c(=O)oc2cc1OCCCOc1no[n+]([O-])c1S(=O)(=O)c1ccccc1`: the IC50 in the test with MCF7 [1] worked out at 740 nM; in the test with MDA-MB-231, 1060 nM; in the test with MCF-10A, 7.03 µM. Further, the outcome in the test with MCF7 [2] was Active.

`COc1cc2cc(C(=O)NCCCc3ccc(F)cc3)c(=O)oc2cc1OCCCOc1no[n+]([O-])c1S(=O)(=O)c1ccccc1`: the IC50 with MCF7 [1] was 600 nM; with MDA-MB-231, 690 nM; in the test with MCF-10A, 8.92 µM. Further, the outcome in the test with MCF7 [2] was Active.

For the molecule `COc1cccc2c1C(=O)c1c(O)c3c(c(O)c1C2=O)C[C@@](O)(C(=O)CO)C[C@@H]3O[C@H]1C[C@H](N)[C@H](O)[C@H](C)O1` [DOXORUBICIN], the IC50 in the test with MCF7 [1] was 510 nM; with MDA-MB-231, 550 nM; with MCF-10A, 0.49 µM.

`COc1cc2cc(C(=O)Nc3ccc(F)cc3)c(=O)oc2cc1OCCCOc1no[n+]([O-])c1S(=O)(=O)c1ccccc1`: the IC50 was 860 nM in the test on MCF7 [1], 1200 nM with MDA-MB-231 and 7.21 µM in the test on MCF-10A. In addition, the result with MCF7 [2] was Active.

Consider `COc1ccc(NC(=O)c2cc3cc(OC)c(OCCCOc4no[n+]([O-])c4S(=O)(=O)c4ccccc4)cc3oc2=O)cc1`, for which the concentration for half-maximal inhibition (IC50) amounted to 410 nM in the test with MCF7 [1], 730 nM with MDA-MB-231 and 5.47 µM with MCF-10A. In the test with MCF7 [2], the result was Active.

Turning to `COc1cc2ccc(=O)oc2cc1O` [SCOPOLETIN], the figures for the IC50 in the test on MCF7 [1], in the test with MDA-MB-231 and in the test with MCF-10A were > 25000 nM, > 25000 nM and > 25 µM, respectively.

These data come from ChEMBL document CHEMBL4842344, “Design, synthesis and biological activity evaluation of novel scopoletin-NO donor derivatives against MCF-7 human breast cancer in vitro and in vivo” (Eur J Med Chem, 2021).
